Read-outs that look alike come from different tables or passages of the source.

Data set [1] relates to reagin-mediated rat Passive Cutaneous Anaphylaxis (PCA). As to the kind of experiment: reagin-mediated rat Passive Cutaneous Anaphylaxis (PCA) screening test. The class given is in vivo, rat (Sprague-Dawley). As for the experimental part: The reagin-mediated rat Passive Cutaneous Anaphylaxis (PCA) screening test used to evaluate the present compounds is generally regarded as one of the best animal models for use in predicting the antiallergy activity of test compounds in man. Briefly, the method consists of passive sensitization of skin sites on the test animals with reaginic antibodies followed after 24 hours by administration of the test drug and antigen challenge. The allergic response is measured by use of Evans' blue dye and is evaluated by the spot diameter at the injection site. Details of the test are provided below.
A substituted ovalbumin antigen is used both as immunogen and challenging antigen. The antigen is prepared as follows: 500 mg. ovalbumin (EA) and 500 mg. K2 CO3 are dissolved in 25 ml. distilled H2 O and stirred at room temperature for 5 minutes. Five hundred (500) mg. dinitrobenzene sulfonic acid, Na^+ salt, (previously recrystallized from hot absolute ethanol) is then added slowly with continued stirring. The reaction mixture is then immediately placed in the dark and allowed to proceed for 2 hours with constant stirring. After 2 hours the mixture is placed in suitable dialysis tubing and dialyzed against 5 changes (4 liters each) of distilled H2 O at 5° C. After dialysis the product is lyophilized and stored at room temperature in a brown or amber container. The antigen obtained will appear as a light yellow, amorphous solid which is very soluble in water or saline. It is designated as DNP denatured ovalbumin (DNP-d EA).
Adult, male Sprague-Dawley rats are used as a source of reagin-rich antisera for the PCA model. Immunization is by a combination of DNP-d EA on Al (OH)3 gel and B. pertussis vaccine. Preparation of the DNP-d EA - gel immunogen is as follows: Dissolve the DNP-d EA in TBS so as to give a concentration of 10 mg./ml. Slowly add 1 ml. of this solution to 10 ml. Al(OH)3 gel (10 mg. solids/ml.) with constant stirring at room temperature. Stir the mixture an additional 30 minutes to insure a uniform adsorption of antigen on gel.
The resulting preparation is then used in combination with phase I B. pertussis vaccine to immunize male S/D rats as follows: For each rat administer 0.1 ml. DNP-d EA - gel suspension intramuscularly in each hind leg (200 μg DNP-d EA and 2 mg. gel total dose). Follow these injections by the intraperitoneal administration of 1.0 ml. B. pertussis vaccine (10-20 × 10^9 organisms). The use of light ether anesthesia during this procedure is recommended to insure proper intramuscular and intraperitoneal injections. Nine days following immunization (but no longer than 10) the animals are exsanguinated by cardiac puncture or abdominal aorta cannulation under ether or pentobarbital anesthesia. The collected whole blood is allowed to clot, the serum separated by centrifugation and the individual serum samples stored frozen until assayed for IgE content.
Individual serum samples should be screened for reaginic antibody concentration before being pooled with other sera, as not all rats respond to immunization procedures with reagin production. A 1:50 saline dilution of serum from each immunized rat is used for this purpose. Intradermal injections of 0.05 ml. of the diluted sera are made in the shaven backs of two small female recipient rats, 100-120 gms. Several serum samples can be tested simultaneously in recipient animals. After a 24 to 48 hour latent period antigen challenge is accomplished by […] administration to each rat of 1 mg. DNP-d EA in 0.5 ml. 0.5% Evans' blue dye in saline. Sera which show positive PCA reactions at the 1:50 dilution, as measured 20 to 30 minutes post-challenge are pooled, dispensed in small aliquots and stored at -70° C. or lower until used. Negative sera may be discarded.
The IgE titer of the antisera pool should then be determined. […]

For data set [2] the following is noted: cited from earlier work.
The test system of data set [3] is release of mediators, e.g. histamine and SRS-A. The following applies: administered to asthmatic patients prior to inhalation of specific antigens; cited from earlier work.

On to `O=C(O)c1cc(=O)c2c(OCC(O)COc3cccc4oc(C(=O)O)cc(=O)c34)cccc2o1` [DSCG, Disodium cromoglycate, reference compound], for which the ED50 in data set [1] (iv, Table I, i.v., compound dosed at time of challenge, solubilized in saline, read-out: ID50, DSCG, i.v. (Table I)) was 0.3 mg/kg; in data set [1] (po, Table I, p.o., 10 minutes prior to antigen challenge, esters suspended in Tween/CMC, read-out: ID50 (dose of compound that inhibits 50% of the response), ethyl esters, p.o.), above 30 mg/kg; in data set [1] (po, Table II, p.o., 10 minutes prior to antigen challenge, acids solubilized in aqueous sodium bicarbonate, read-out: ID50 (dose of compound that inhibits 50% of the response), 5-carboxylic acids, p.o.), above 30 mg/kg. The oral absorption result in data set [2] was “not orally absorbed”. Also, the “inhibition of release of mediators” value in data set [3] is “inhibits the release of mediators, e.g. histamine and SRS-A”.

(Values after US4031093A, “1,6-Dihydro-6-oxo-2-(ortho-substituted phenyl)pyrimidine-5-carboxylic acid derivatives” (priority 1976, dated 1977).)
